# Test results from patent US20050250137A1, “Molecular targets of cancer and aging” (priority 2002, published 2005).
# System: LFS cells
# Assay: poly (I:C) stimulation of LFS cells, STAT1α and IFNβ gene expression
# Assay type: cell-based, human
# Conditions: poly (I:C) treatment
substance,measurement,setting,value
poly (I:C),STAT1α and IFNβ gene expression,MDAH041-PC,induced
same,STAT1α and IFNβ gene expression,MDAH087-1,no induction
same,STAT1α and IFNβ gene expression,MDAH087-10,no induction
same,STAT1α and IFNβ gene expression,MDAH087-N,induced
same,STAT1α and IFNβ gene expression,MDAH087-PC,induced
same,STAT1α and IFNβ gene expression,immortal MDAH041,induced
